# The supplement of paper PMC4862054
# How the values were obtained:
# Details in all cases: incubation time: 72 h
# CAL-120 [1] = assay: drug sensitivity score (DSS), CellTiter-Blue viability (DSS (AUC-based score)); higher = stronger viability inhibition; extreme values may be limits of the assay
# Procedure: (§1)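 DSRT with the CellTiter-Blue (resazurin reduction) viability readout, fluorescence 560/590 nm, 72 h incubation. Plates were normalised to DMSO and benzethonium chloride controls. DSS is computed from the area under the fitted dose-response curve (5 or 9 concentrations).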
# DU-4475 [2] = assay: as above
# Procedure: as §1
# MFM-223 [3] = assay: as above
# Procedure: as §1
# HCC1143 [4] = assay: as above
# Procedure: as §1
# HCC1937 [5] = assay: as above
# Procedure: as §1
# CAL-148 = assay: normalised viability (% of control), CellTiter-Blue; higher = more viable cells (about 100 = DMSO control)
# Summary of the method: (§2)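 Compound dissolved in 5 µl medium was pre-loaded into 384-well plates, and breast cancer cell lines in 20 µl suspension were seeded on top and incubated 72 h. After adding 2.5 µl CellTiter-Blue reagent for 2 h at 37 °C, fluorescence was read at 560/590 nm. Plates were normalised to vehicle (100) and a positive kill control (0), with Z'-factor quality control. Each value is normalised viability at a single listed concentration from the series.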
# CAL-120 [6] = assay: as above
# Summary of the method: as §2
# DU-4475 [7] = assay: as above
# Summary of the method: as §2
# HDQ-P1 = assay: as above
# Summary of the method: as §2
# MFM-223 [8] = assay: as above
# Summary of the method: as §2
# BT-549 = assay: as above
# Summary of the method: as §2
# CAL-51 = assay: as above
# Summary of the method: as §2
# MDA-MB-468 = assay: as above
# Summary of the method: as §2
# MDA-MB-231 = assay: as above
# Summary of the method: as §2
# HCC1143 [9] = assay: as above
# Summary of the method: as §2
# HCC1599 = assay: as above
# Summary of the method: as §2
# MDA-MB-436 = assay: as above
# Summary of the method: as §2
# CAL-85-1 = assay: as above
# Summary of the method: as §2
# MDA-MB-453 = assay: as above
# Summary of the method: as §2
# SK-BR-3 = assay: as above
# Summary of the method: as §2
# HCC1937 [10] = assay: as above
# Summary of the method: as §2
# Hs578T = assay: as above
# Summary of the method: as §2
# BT-474 = assay: as above
# Summary of the method: as §2
SMILES,drug sensitivity score (CAL-120 [1]),drug sensitivity score (DU-4475 [2]),drug sensitivity score (MFM-223 [3]),drug sensitivity score (HCC1143 [4]),drug sensitivity score (HCC1937 [5]),normalised viability (CAL-148; 10 nM),normalised viability (CAL-120 [6]; 100 nM),normalised viability (DU-4475 [7]; 10 nM),normalised viability (HDQ-P1; 10 nM),normalised viability (MFM-223 [8]; 100 nM),normalised viability (BT-549; 100 nM),normalised viability (CAL-51; 10 nM),normalised viability (MDA-MB-468; 100 nM),normalised viability (MDA-MB-231; 100 nM),normalised viability (HCC1143 [9]; 100 nM),normalised viability (HCC1599; 100 nM),normalised viability (MDA-MB-436; 100 nM),normalised viability (CAL-85-1; 10 nM),normalised viability (MDA-MB-453; 10 nM),normalised viability (SK-BR-3; 100 nM),further results
O=C(c1cc(Cc2n[nH]c(=O)c3ccccc23)ccc1F)N1CCN(C(=O)C2CC2)CC1 [Olaparib],0,3.83,0,0,11.2,83.3%,76.2%,97.5%,99.4%,103%,102%,101%,99.8%,76.5%,88.2%,114%,107%,88.1%,97.8%,81.2%,normalised viability (HCC1937 [10]; 100 nM): 77.9%; normalised viability (Hs578T; 100 nM): 80.9%; normalised viability (BT-474; 100 nM): 105%
C[C@]12C=CC(=O)C=C1CC[C@@H]1[C@@H]2C(=O)C[C@@]2(C)[C@H]1CC[C@]2(O)C(=O)CO [Prednisone],0,0,0,0,0,98.2%,78.2%,97.9%,104%,92.3%,99.2%,102%,99.2%,100%,101%,98.5%,108%,109%,112%,77%,normalised viability (HCC1937 [10]; 100 nM): 100%; normalised viability (Hs578T; 100 nM): 77.9%; normalised viability (BT-474; 100 nM): 117%
CO[C@H]1C[C@@H]2CC[C@@H](C)[C@@](O)(O2)C(=O)C(=O)N2CCCC[C@H]2C(=O)O[C@H]([C@H](C)C[C@@H]2CC[C@@H](O)[C@H](OC)C2)CC(=O)[C@H](C)/C=C(\C)[C@@H](O)[C@@H](OC)C(=O)[C@H](C)C[C@H](C)/C=C/C=C/C=C/1C [Sirolimus],17.3,15,21.3,10.1,20.4,,,,,,,,,,,,,,,,normalised viability (CAL-148; 1 nM): 74.8%; normalised viability (CAL-120 [6]; 10 nM): 54.5%; normalised viability (DU-4475 [7]; 1 nM): 85.1%; normalised viability (HDQ-P1; 1 nM): 76.7%; normalised viability (MFM-223 [8]; 10 nM): 49%; normalised viability (BT-549; 10 nM): 53%; normalised viability (CAL-51; 1 nM): 62.6%; normalised viability (MDA-MB-468; 10 nM): 65.4%; normalised viability (MDA-MB-231; 10 nM): 67.7%; normalised viability (HCC1143 [9]; 10 nM): 67.9%; normalised viability (HCC1599; 10 nM): 73.8%; normalised viability (MDA-MB-436; 10 nM): 82.5%; normalised viability (CAL-85-1; 1 nM): 68.9%; normalised viability (MDA-MB-453; 1 nM): 54.3%; normalised viability (SK-BR-3; 10 nM): 59.1%; normalised viability (HCC1937 [10]; 10 nM): 61.5%; normalised viability (Hs578T; 10 nM): 58.2%; normalised viability (BT-474; 10 nM): 65.9%
CN1CCN(c2nc(C3=C(c4c[nH]c5ccccc45)C(=O)NC3=O)c3ccccc3n2)CC1 [Sotrastaurin],0,0,0,0,0,116%,122%,95%,89.3%,97.3%,86.4%,88.2%,96.3%,99.4%,133%,95%,96.3%,104%,93.4%,73%,normalised viability (HCC1937 [10]; 100 nM): 96.3%; normalised viability (Hs578T; 100 nM): 79.9%; normalised viability (BT-474; 100 nM): 108%
CC/C(=C(\c1ccccc1)c1ccc(OCCN(C)C)cc1)c1ccccc1 [Tamoxifen],0,0,0,0,0,108%,106%,94.1%,104%,95.2%,88.3%,92%,122%,91%,126%,92.5%,97.5%,102%,257%,90.7%,normalised viability (HCC1937 [10]; 100 nM): 93.7%; normalised viability (Hs578T; 100 nM): 91.7%; normalised viability (BT-474; 100 nM): 112%
COc1cc2c(N3CCN(C(=O)Nc4ccc(OC(C)C)cc4)CC3)ncnc2cc1OCCCN1CCCCC1 [Tandutinib],0,0,0,0,0,,,,,,,,,,,,,,,,normalised viability (CAL-148; 1 nM): 98.1%; normalised viability (CAL-120 [6]; 10 nM): 110%; normalised viability (DU-4475 [7]; 1 nM): 107%; normalised viability (HDQ-P1; 1 nM): 130%; normalised viability (MFM-223 [8]; 10 nM): 102%; normalised viability (BT-549; 10 nM): 106%; normalised viability (CAL-51; 1 nM): 109%; normalised viability (MDA-MB-468; 10 nM): 108%; normalised viability (MDA-MB-231; 10 nM): 108%; normalised viability (HCC1143 [9]; 10 nM): 125%; normalised viability (HCC1599; 10 nM): 101%; normalised viability (MDA-MB-436; 10 nM): 102%; normalised viability (CAL-85-1; 1 nM): 104%; normalised viability (MDA-MB-453; 1 nM): 110%; normalised viability (SK-BR-3; 10 nM): 84.3%; normalised viability (HCC1937 [10]; 10 nM): 98.4%; normalised viability (Hs578T; 10 nM): 94.5%; normalised viability (BT-474; 10 nM): 123%
C[C@@H](C(=O)O)c1ccc(-c2ccccc2)c(F)c1 [Tarenflurbil],0,0,0,0,0,90.2%,98.6%,114%,91.8%,101%,103%,118%,104%,90.8%,98.8%,103%,122%,91.5%,99.5%,84.8%,normalised viability (HCC1937 [10]; 100 nM): 109%; normalised viability (Hs578T; 100 nM): 72.9%; normalised viability (BT-474; 100 nM): 109%
Cn1nnc2c(C(N)=O)ncn2c1=O [Temozolomide],0,0,0,0,0,90.4%,95.9%,124%,92.3%,105%,83.6%,98.5%,95.7%,104%,85.4%,115%,94.5%,102%,101%,96.2%,normalised viability (HCC1937 [10]; 100 nM): 100%; normalised viability (Hs578T; 100 nM): 81.3%; normalised viability (BT-474; 100 nM): 98.2%
CC[C@@H]1C(=O)N(C)c2cnc(Nc3ccc(C(=O)N[C@H]4CC[C@H](N5CCN(CC6CC6)CC5)CC4)cc3OC)nc2N1C(C)C [Volasertib],20.5,14.7,16.9,13.4,16.3,,,,,,,,,,,,,,,,normalised viability (CAL-148; 1 nM): 98.3%; normalised viability (CAL-120 [6]; 10 nM): 48.5%; normalised viability (DU-4475 [7]; 1 nM): 124%; normalised viability (HDQ-P1; 1 nM): 103%; normalised viability (MFM-223 [8]; 10 nM): 51.1%; normalised viability (BT-549; 10 nM): 94.5%; normalised viability (CAL-51; 1 nM): 102%; normalised viability (MDA-MB-468; 10 nM): 83.8%; normalised viability (MDA-MB-231; 10 nM): 92.8%; normalised viability (HCC1143 [9]; 10 nM): 77.4%; normalised viability (HCC1599; 10 nM): 78.5%; normalised viability (MDA-MB-436; 10 nM): 88.6%; normalised viability (CAL-85-1; 1 nM): 95.3%; normalised viability (MDA-MB-453; 1 nM): 104%; normalised viability (SK-BR-3; 10 nM): 53.6%; normalised viability (HCC1937 [10]; 10 nM): 70.6%; normalised viability (Hs578T; 10 nM): 97.3%; normalised viability (BT-474; 10 nM): 55.8%
